{
  "source": "patent US7378387B2",
  "about": "“Method of suppressing immune response by reducing intracellular content of glutathione in macrophages and monocytes” (Ajinomoto Co., Inc., priority 1997, dated 2008)",
  "key": {"[1]": {"test_system": "spontaneous onset of insulin-dependent diabetes mellitus", "assay": "Onset of diabetes mellitus in NOD mice dosed at age 3 to 6 and 9 to 11 weeks (Example 24)", "type": "in vivo", "settings": "route not given, 0.1 mg/kg; 15 times in total; judged on week 22; saline 60", "description": "(§1) NOD mice purchased from Nippon Clair, Co. were naturally mated together. Among the off spring mice, a colony of NOD mice with a high frequency of the spontaneous onset of insulin-dependent diabetes mellitus was established. Female NOD mice from the colony were used for the present experiment. […] Urine glucose was detected, using Uropaper (BM Test Glucose 5000, manufactured by Yamanouchi Pharmaceuticals, Co. Ltd.). The onset was judged on week 22."}, "[2]": {"test_system": "peritoneal exudate cells (macrophages)", "assay": "Induction of oxidative and reductive macrophages, monochlorobimane/ACAS (Example 1)", "type": "in vivo", "settings": "LPS 20 μg or lentinan 100 μg three times every two days into the abdominal cavity of a mouse", "method": "These were clarified by adhering peritoneal exudate cells to the plastic surface, then reacting the same with 10 μM of monochlorobimane at 37° C. for 30 minutes and conducting analysis with Adherent Cell Analyzing System (ACAS). The increase in the amounts of oxidative macrophages can easily be measured visually from the fact that almost no reaction product is observed, that is, gray or blue image is obtained, and the increase in the amounts of reductive macrophages from the fact that the red or yellow image is obtained, respectively."}, "[3]": {"test_system": "spontaneous onset of insulin-dependent diabetes mellitus", "assay": "Onset of diabetes mellitus in NOD mice dosed at age 9 to 11 weeks (Example 25)", "type": "in vivo", "settings": "route not given, nine times, judged on week 22, saline 67", "description": "NOD mice purchased from Nippon Clair, Co. were naturally mated together. Among the off spring mice, a colony of NOD mice with a high frequency of the spontaneous onset of insulin-dependent diabetes mellitus was established. Female NOD mice from the colony were used for the present experiment. Chemical agents were orally or intraperitoneally administered to the NOD mice aged 9 to 11 weeks three times per week, in total nine times; and based on the test results of urine glucose, positive or negative, the onset of diabetes mellitus was followed once per week. Urine glucose was detected, using Uropaper (BM Test Glucose 5000, manufactured by Yamanouchi Pharmaceuticals, Co. Ltd.). The onset was judged on week 22; the doses were the same as in Example 24."}, "[4]": {"test_system": "adjuvant-induced arthritis", "assay": "Adjuvant-induced arthritis (AA) in rats, joint swelling (Examples 18 and 19)", "type": "in vivo, Lewis rats", "method": "Adjuvant-induced arthritis was triggered in Lewis rats in a conventional manner; and the effects of chemical agents were examined in the animals. Adjuvant-induced arthritis is well known as an experimental arthritis inducible in rats [Taurog et al., Meth. Enzymol. 162, 339-355 (1988)]. […] An adjuvant is administered at 1 mg/0.1 ml per rate at a site of caudal root. The edema reaches its peak about 2 to 3 weeks after the administration of the adjuvant. The edema is triggered by inflammatory infiltration of monocytes. Swollen joints are measured with a micrometer every day; comparing the diameters of the joints prior to and after adjuvant administration and after initiation of the treatment with chemical agents with the diameters of the joints in the control group, the effects of the chemical agents were expressed as the ratio in % of joint swelling in the experimental groups to joint swelling in the control group. The effects were determined on day 15 after adjuvant administration. The chemical agents were given, starting the day next to the day of adjuvant administration, and every 3 days thereafter.\nA single dose is 1 mg/kg for (NAC)2 and (NAC-OMe)2; 100 mg/kg for NAC; and 0.1 mg/kg for lentinan.\nAdjuvant-induced arthritis was induced in Lewis rats in a conventional manner. In the same manner as in Example 11, the effects of chemical agents were examined in these rats. The conditions were the same as described above."}, "IL-12": {"test_system": "IL-12", "assay": "IL-12 production by MΦ induced by intraperitoneal injection of substances (Example 7)", "type": "in vivo, mouse", "method": "The amount of IL-12 was determined through bioassay using cells of human T cell strain 2D6 (J. Leukocyte Biology, vol. 61, p. 346, 1997).\n2D6 cells which had been incubated in an RPMI 1640 medium containing 500 pg/ml of recombinant human IL-12, 50 μM of 2-mercaptoethanol and 10% FCS (fetal calf serum) were moved to a tube, and centrifugally washed three times with the above-mentioned medium without IL-12 and cell density was adjusted to 1×10^5/ml. The cell suspension was added in an amount of 100 μl each to a 96-well flat bottom plate containing a sample serially diluted in advance with an RPMI 1640 medium containing 50 μM of 2-mercaptoethanol and 10% FCS in an amount of 100 μl each. Subsequently, the mixture was charged into a 5% […] incubator of 37° C., and incubated for 48 hours. For final 6 hours, ^3H-TdR was pulsed (a substance adjusted to 370 kBq/ml in an RPMI 1640 medium containing 50 μM of 2-mercaptoethanol and 10% FCS was added in an amount of 50 μl each). The cells a harvested, and the radioactivity was measured using a β counter (Matrix 96, supplied by Packard).\nIt was examined whether there is a difference in the IL-12 production between LNT-induced MΦ and LPS-induced MΦ. […] Next, the same analysis was conducted using MΦ induced by intraperitoneally injecting substances for changing the GSH content in cells."}, "[5]": {"test_system": "spontaneous onset of insulin-dependent diabetes mellitus", "assay": "Onset of diabetes mellitus in NOD mice dosed at age 3 to 6 weeks (Example 23)", "type": "in vivo", "settings": "intraperitoneal, three times per week, nine times", "method": "as §1, with “Chemical agents were administered intraperitoneally, unless otherwise stated. […] (NAC)2 and (NAC-OMe)2 were at a single dose of 20 μg/animal; and NAC and GSHOEt were at a single dose of 2 μg/animal; and a single dose of lentinan” for “The onset”, “0.1 mg/kg.” for “judged on week 22.”"}},
  "data": [
    {"substance": "Lentinan [reference compound]", "values": [
      {"measurement": "Frequency (%) of onset of diabetes mellitus", "setting": "[1]", "result": 0, "unit": "%"},
      {"measurement": "type of macrophages induced (GSH by monochlorobimane, ACAS)", "setting": "[2]", "result": "reductive macrophages were induced"},
      {"measurement": "Frequency (%) of onset of diabetes mellitus", "setting": "[3]", "result": 50, "unit": "%"},
      {"measurement": "Ratio in % of joint swelling in experimental groups to joint swelling in control group", "setting": "[4]; Table 3, day 15 after adjuvant, every 3 days, single dose 1 mg/kg (NAC)2 and (NAC-OMe)2, 100 mg/kg NAC, 0.1 mg/kg lentinan", "result": 52, "unit": "%"},
      {"measurement": "Ratio in % of joint swelling in experimental groups to joint swelling in control group", "setting": "[4]; Table 4, intravenous", "result": 50, "unit": "%"},
      {"measurement": "IL-12 production", "setting": "IL-12; MΦ induced by intraperitoneal injection of the substance, stimulation with LPS and IFNγ", "result": "1,312 pg/ml"},
      {"measurement": "IL-12 production of substance-induced MΦ, without DEM or IL-4", "setting": "IL-12; baseline values of the DEM and IL-4 experiments", "result": 828, "unit": "pg/mL"},
      {"measurement": "Frequency (%) of onset of diabetes mellitus, on age 18 weeks", "setting": "[5]; saline 50", "result": 10, "unit": "%"},
      {"measurement": "Frequency (%) of onset of diabetes mellitus, on age 22 weeks", "setting": "[5]; saline 80", "result": 20, "unit": "%"}
    ]}
  ]
}
